Key:
psoriasis induced mice [1] = test: Hair regrowth in psoriasis induced mice after termination of imiquimod application; type: in vivo, mouse; settings: oral 100 mg/kg
Procedure: (§1) Imiquimod was applied to the psoriasis induced mice which had developed psoriasis for a week in Example <2-1>. The application was stopped 8 days after the application began. The groups CON and IMQ were treated with distilled water, the group C was treated with cedrol, the group CA was treated with cedryl acetate, the group CE was treated with alpha-cedrene alone at the concentration of 100 mg/kg in 200 ? , every day via oral-administration. Day 8 was the day the imiquimod application was stopped, since then the compounds were administered for 1 week once a day, during which photo-recording was performed (FIGS. 13A˜13D).
The psoriasis induced mice orally administered with cedrol, cedryl acetate, and alpha-cedrene of Example <3-1> were observed by the naked eye, and the number of mice showing hair regrowth was counted.

[2] = Weight changes in psoriasis induced mice during oral administration; type: in vivo, mouse; settings: oral 100 mg/kg once a day during IMQ application, for 7 days; IMQ alone reduced by 0.48 g
Procedure: (§2) To investigate the delayed effect of cedrol, cedryl acetate, and alpha-cedrene on the development of psoriasis, total 5 groups of mice were prepared (8 mice/group). First, the hair of the entire back of the 8-week-old male Balb/c mouse whose immune system was weakened was removed by using a hair clipper (Kimlaube Hair pen 325,327, Rikei, Korea). In the middle of the shaved back of the mouse, 2 mg of imiquimod (3M Health Care Limited, England) was applied in the area of 2 cm×1.5 cm and also 1,125 mg of imiquimod was applied on the right ear of the mouse every day once a day to induce psoriasis.
The mice prepared above were divided into the distilled water treated group (IMQ), the cedrol treated group (C), the cedryl acetate treated group (CA), and the alpha-cedrene treated group (CE). […] The day when distilled water or the compound administration started was recorded as day 0 and the administration was performed once a day for a week, during which photo-recording was performed every day (FIGS. 2A˜2D). […]
To compare the weight changes in the psoriasis induced mice according to the oral administration of cedrol, cedryl acetate, and alpha-cedrene of Example <2-1>, the weight of each mouse was measured at the same time every day for a week.

psoriasis induced mice [3] = test: Therapeutic (recovery) effect in psoriasis induced mice after termination of imiquimod application; type: in vivo, mouse; settings: for PASI reflecting skin flair: distilled water 0.7±0.6; for number of mice showing skin wrinkles / number of mice showing hemorrhage spots: oral 100 mg/kg
Procedure: as §1
The psoriasis area severity index (Psoriasis Area Severity Index, PASI) was given from the point 1 to point 4, based on which the recovery effect on the ear thickness was evaluated.
Then, the psoriasis area severity index (Psoriasis Area Severity Index, PASI) was calculated, based on which the recovery effect on keratosis was evaluated.
The psoriasis area severity index obtained in Examples <3-2> and <3-4> was accumulated to compare the psoriasis area severity index for ear thickness, keratosis and skin flair of the mouse groups respectively treated with cedrol, cedryl acetate, and alpha-cedrene via oral-administration.
The psoriasis induced mice orally administered with cedrol, cedryl acetate, and alpha-cedrene of Example <3-1> were observed by the naked eye, and the number of mice showing the recovery of hemorrhage spots was counted.
The psoriasis induced mice orally administered with cedrol, cedryl acetate, and alpha-cedrene of Example <3-1> were observed by the naked eye, and the number of mice showing the recovery of skin wrinkles was counted.

human IL-17A expression = test: IL-17A inhibition assay in IL-17 luciferase-(LUCPorter) stable reporter cell line; settings: 10, 100, 1,000 μg/ml
psoriasis induced mice [4] = test: Delay of psoriasis development in imiquimod-induced mice (ear thickness, keratosis, skin flair, pain, hemorrhage spots, wrinkles); type: in vivo, mouse; settings: for number of mice showing hemorrhage spots / number of mice showing skin pain / number of mice showing skin wrinkles: oral 100 mg/kg; for cumulative psoriasis area severity index (ear thickness, keratosis, skin flair), in words: oral 100 mg/kg once a day, FIG. 7
Procedure: as §2
The mice prepared above were divided into the distilled water treated group (IMQ), the cedrol treated group (C), the cedryl acetate treated group (CA), and the alpha-cedrene treated group (CE). At this time, the mice were orally treated with distilled water at the concentration of 200 ? /mouse and cedrol or its derivatives at the concentration of 200 ? /mouse (100 mg/kg). The day when distilled water or the compound administration started was recorded as day 0 and the administration was performed once a day for a week, during which photo-recording was performed every day (FIGS. 2A˜2D). In the meantime, instead of applying imiquimod, 40 mg of vaseline was applied on the back of the control group (CONT) and 22.5 mg of vaseline was applied on the right ear of the control group. And the control group was orally administered with distilled water (200 ? /mouse).
Then, the psoriasis area severity index (PASI) was calculated with the range of 1˜4 to confirm the reduction effect of the compounds on the ear thickness.
Then, the psoriasis area severity index (PASI) was calculated to confirm the reduction effect of the compounds on keratosis. Keratosis is a symptom of psoriasis. The application of IMQ can induce keratosis.
Then, the psoriasis area severity index (PASI) was calculated to confirm the reduction effect of the compounds on skin flair. Skin flair is a symptom of psoriasis. The application of IMQ can induce skin flair.
The psoriasis area severity index obtained in Examples <2-3> and <2-5> was accumulated to compare the psoriasis area severity index for ear thickness, keratosis and skin flair of the mouse groups respectively treated with cedrol, cedryl acetate, and alpha-cedrene via oral-administration.
When the back of the psoriasis induced mice orally administered with cedrol, cedryl acetate, and alpha-cedrene of Example <2-1> was pinched, those mice who sound painfully with strong rejection were counted. Skin pain is a symptom of psoriasis, and when IMQ is applied, skin pain becomes stronger as time goes by.
The psoriasis induced mice orally administered with cedrol, cedryl acetate, and alpha-cedrene of Example <2-1> were observed by the naked eye, and the number of mice showing hemorrhage spots was counted. Hemorrhage spot is a symptom of psoriasis, and when IMQ is applied, the number of skin hemorrhage spots increases as time goes by.
The psoriasis induced mice orally administered with cedrol, cedryl acetate, and alpha-cedrene of Example <2-1> were observed by the naked eye, and the number of mice showing skin wrinkles was counted. Skin wrinkle is a symptom of psoriasis, and when IMQ is applied, skin keratinization increases and accordingly skin wrinkles are formed as time goes by.

[5] = oral 100 mg/kg once a day, day 15
[6] = oral 100 mg/kg once a day, day 16
[7] = day 16, distilled water 1 mouse
[8] = day 16, distilled water one mouse
[9] = day 7, 8 mice/group, IMQ alone 3 mice
[10] = day 7, 8 mice/group, IMQ alone 5 mice

Compound | number of mice showing hair regrowth (psoriasis induced mice [1]; day 16, distilled water 5 mice) | PASI reflecting skin flair (psoriasis induced mice [3]; [6]) | suppression of the expression of IL-17A (in words) (human IL-17A expression) | number of mice showing skin wrinkles (psoriasis induced mice [4]; day 5, 8 mice/group) | number of mice showing hemorrhage spots (psoriasis induced mice [3]; [7]) | number of mice showing skin wrinkles (psoriasis induced mice [3]; [8]) | cumulative psoriasis area severity index (ear thickness, keratosis, skin flair), in words (psoriasis induced mice [4]) | number of mice showing hemorrhage spots (psoriasis induced mice [4]; day 5, 8 mice/group) | number of mice showing skin wrinkles (psoriasis induced mice [4]; [9]) | number of mice showing hemorrhage spots (psoriasis induced mice [4]; [10]) | further results
C[C@@H]1CC[C@H]2C(C)(C)[C@H]3C[C@@]12CC[C@@]3(C)O [cedrol, Cedrol] | all the mice | disappeared | dose-dependently | one mouse | – | – | – | – | – | – | weight change (increase) [2]: 0.025 g; cumulative psoriasis area severity index (ear thickness, keratosis, skin flair), recovery in words (psoriasis induced mice [3]; oral 100 mg/kg once a day, FIG. 17): strongest recovery effect; PASI reflecting keratosis (psoriasis induced mice [3]; [5]): recovered to normal; number of mice showing skin wrinkles (psoriasis induced mice [3]; after day 15): no mouse; number of mice showing hemorrhage spots (psoriasis induced mice [3]; day 12): no mouse; number of mice showing hemorrhage spots (psoriasis induced mice [4]; day 4, 8 mice/group): one mouse; number of mice showing skin pain (psoriasis induced mice [4]; day 4, 8 mice/group): one mouse; number of mice showing skin pain (psoriasis induced mice [4]; day 5, 8 mice/group): no mice
CC1=CC[C@@]23C[C@@H]1C(C)(C)[C@@H]2CC[C@H]3C [alpha-cedrene, Alpha-cedrene] | all the mice | disappeared | dose-dependently | – | no mouse | no mouse | strongest reduction effect | two mice | one mouse | one mouse | number of mice showing hair regrowth (psoriasis induced mice [1]; day 13): one mouse; number of mice showing skin wrinkles (psoriasis induced mice [4]; day 6, 8 mice/group): one mouse; number of mice showing skin pain (psoriasis induced mice [4]; during the 7 day observation period): no mice
CC(=O)O[C@]1(C)CC[C@@]23C[C@@H]1C(C)(C)[C@@H]2CC[C@H]3C [cedryl acetate, Cedryl acetate] | – | – | dose-dependently | one mouse | no mouse | no mouse | strongest reduction effect | one mouse | one mouse | one mouse | number of mice showing hair regrowth (psoriasis induced mice [1]; day 14, distilled water one mouse): one mouse; PASI reflecting the ear thickness (psoriasis induced mice [3]; [5]): recovered to normal; number of mice showing skin pain (psoriasis induced mice [4]; day 6, 8 mice/group): one mouse; number of mice showing skin pain (psoriasis induced mice [4]; [10]): no mice

From patent US10493043B2, “Pharmaceutical composition for preventing or treating autoimmune diseases comprising cedrol or derivatives thereof, or pharmaceutically acceptable salts thereof” (University of Seoul Industry Cooperation Foundation, priority 2017, dated 2019)
